Test results from patent US4496584A, “Amidine derivatives with anti-complement activity” (Torii & Co. Ltd., priority 1981, dated 1985).

Legend:
kallikrein = assay: Enzyme inhibition, TAME hydrolysis, kallikrein (method of Muramatsu et al.); assay type: biochemical; details: read-out: ID50, kallikrein
Procedure: (§1) The enzyme inhibitory activity was determined according to the method of Muramatsu et al. [M. Muramatsu, T. Onishi, S. Makino, Y. Hayashi and S. Fujii, J. Biochem., 58, 214 (1965)]. The data summarized in Table 1 are expressed in terms of molar concentration (ID50) of the test compound which inhibits 50% of the activity of each enzyme to hydrolyze TAME (tosylarginine methyl ester).

plasmin = plasmin (Homo sapiens, UniProt P00747); assay: Enzyme inhibition, TAME hydrolysis, plasmin (method of Muramatsu et al.); assay type: biochemical; details: read-out: ID50, plasmin
Procedure: as §1

thrombin = thrombin (Bos taurus, UniProt P00735); assay: Enzyme inhibition, TAME hydrolysis, thrombin (method of Muramatsu et al.); assay type: biochemical
Procedure: as §1

trypsin = molecular target: T1, trypsin (Bos taurus, UniProt P00760); assay: Enzyme inhibition, TAME hydrolysis, trypsin (method of Muramatsu et al.); assay type: biochemical; details: hydrolysis of TAME; read-out: ID50, trypsin
T1 sequence (P00760 24-246): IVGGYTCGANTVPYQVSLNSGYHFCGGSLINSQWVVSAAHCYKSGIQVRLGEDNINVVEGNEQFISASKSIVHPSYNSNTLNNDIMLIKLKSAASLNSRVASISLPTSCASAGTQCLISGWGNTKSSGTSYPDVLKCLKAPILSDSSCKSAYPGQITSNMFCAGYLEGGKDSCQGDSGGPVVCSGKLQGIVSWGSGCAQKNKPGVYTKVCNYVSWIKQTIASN
Procedure: as §1

[1] = system: complement mediated hemolysis; assay: Inhibition of complement mediated hemolysis (method of Baker et al.); assay type: cell-based

Chain of plasmin (P00747 581-810 limits assumed): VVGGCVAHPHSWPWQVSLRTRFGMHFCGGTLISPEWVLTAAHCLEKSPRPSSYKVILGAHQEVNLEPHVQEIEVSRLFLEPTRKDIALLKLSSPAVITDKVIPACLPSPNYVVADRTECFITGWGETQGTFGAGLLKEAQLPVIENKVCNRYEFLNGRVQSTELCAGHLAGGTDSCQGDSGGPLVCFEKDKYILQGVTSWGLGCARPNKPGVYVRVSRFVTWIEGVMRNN
Chain of plasmin (P00747 97-580 partner limits assumed): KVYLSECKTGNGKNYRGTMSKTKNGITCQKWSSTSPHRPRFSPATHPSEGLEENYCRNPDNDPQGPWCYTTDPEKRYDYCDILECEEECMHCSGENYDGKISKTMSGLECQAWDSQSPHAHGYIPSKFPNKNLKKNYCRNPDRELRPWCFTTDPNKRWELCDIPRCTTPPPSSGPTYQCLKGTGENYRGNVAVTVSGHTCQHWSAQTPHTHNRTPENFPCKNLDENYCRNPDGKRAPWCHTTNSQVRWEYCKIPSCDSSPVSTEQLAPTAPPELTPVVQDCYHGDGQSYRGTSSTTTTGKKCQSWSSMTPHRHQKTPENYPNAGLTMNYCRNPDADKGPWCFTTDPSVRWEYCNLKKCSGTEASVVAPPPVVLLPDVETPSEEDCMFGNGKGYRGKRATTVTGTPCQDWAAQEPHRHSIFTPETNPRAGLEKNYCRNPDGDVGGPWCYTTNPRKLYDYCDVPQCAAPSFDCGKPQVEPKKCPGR

| SMILES | IC50 (kallikrein) [µM] | IC50 (plasmin) [µM] | inhibition at 10 µM (thrombin; 1×10^-5 M, hydrolysis of TAME, read-out: percentage inhibition, thrombin (figure in parentheses)) [%] | IC50 (trypsin) [µM] | Inhibition of complement mediated hemolysis (%) ([1]; concentration 1 × 10^-4) | Inhibition of complement mediated hemolysis (%) ([1]; concentration 1 × 10^-5) | Inhibition of complement mediated hemolysis (%) ([1]; concentration 1 × 10^-6) | Inhibition of complement mediated hemolysis (%) ([1]; concentration 1 × 10^-7) | IC50 (thrombin) [µM] |
| --- | --- | --- | --- | --- | --- | --- | --- | --- | --- |
| CCCCCCCCCC(=O)Oc1ccc2cc(C(=N)N)ccc2c1 [Compound No. 5, 6-amidino-2-naphthyl caprate] | 100 | 10 | 26 | 6 |  |  |  |  |  |
| CCCCCCCCCCCC(=O)Oc1ccc2cc(C(=N)N)ccc2c1 [Compound No. 6, 6-amidino-2-naphthyl laurate] |  |  |  |  | 13 | 13 | 27 | 15 |  |
| C/C=C/C=C/C(=O)Oc1ccc2cc(C(=N)N)ccc2c1 [Compound No. 9, 6-amidino-2-naphthyl sorbate] |  |  |  |  | 94 | 89 | 37 | 14 |  |
| N=C(N)c1ccc2cc(OC(=O)CC3C=CCC3)ccc2c1 (stereo not shown) [Compound No. 13, 6-amidino-2-naphthyl 2-cyclopenteneacetate] |  |  |  |  | 39 | 21 | 10 | 10 |  |
| N=C(N)c1ccc2cc(OC(=O)CCCC3CCCCC3)ccc2c1 [Compound No. 15, 6-amidino-2-naphthyl 4-cyclohexylbutyrate] | > 10 |  |  |  |  |  |  |  | > 10 |
| N=C(N)c1ccc2cc(OC(=O)CCCCCN)ccc2c1 [Compound No. 17, 6-amidino-2-naphthyl ε-aminocaproate] | 50 | 40 |  | 200 |  |  |  |  | 600 |
